According to patent US20260265771A1, “METHODS OF INCREASING THE REGENERATION EFFICIENCY IN PLANTS” (Institute of Genetics and Developmental Biology Chinese …, priority 2022, published 2026):
“Also recorded” adds a separate entry of the source.

Experiments:
pepper roots = test: Root hair formation in pepper; type: in vivo, Capsicum annuum; details: 0, 10 and 100 nM CaREF1
Excerpt: The pepper SIPEP (REF1) orthologue (CaREF1) was investigated to establish whether CaREF1 can increase the regenerative capacity of pepper (Capsicum annuum).

[1] = test system: pepper cotyledon explants; test: Callus formation of pepper cotyledon explants on CIM; type: cell-based, Capsicum annuum; details: CIM, 0, 1 and 10 nM CaREF1
Procedure: Cotyledon explants were cultured on callus-inducing medium (CIM) containing indicated concentrations of CaREF1. (a) photos of cotelydon explants grown with 0 nM, 1 nM and 10 nM CaREF1. (b) relative callus area of cotelydon explants grown with 0 nM, 1 nM and 10 nM CaREF1. Box plots represent the distribution of projected callus area. The projected area of callus was quantified by Image J. Individual values (black dots) are shown and error bars represent SD from three independent experiments. **P<0.01, *P<0.05 (Student's t-test).

sunflower explants = test: Shoot regeneration of sunflower cotyledon explants; type: cell-based
Procedure: (A) The shoot regenerative capacity was represented by the relative frequency of explants with the regenerated shoots. (B) The shoot regenerative capacity was represented by the number of explants with different number of regenerated shoots. Bars show mean±SD. ***P<0.001, **P<0.01, *P<0.05 (Student's t-test). (C) photos of sunflower plants grown in the presence of 1 nM HaREF1, 10 nM HaREF1 or absence of HaREF1 (mock).
The sunflower SIPEP (REF1) orthologue (HanREF1) was investigated to establish its effect on sunflower regenerative capacity.
For the regeneration protocol we referred to Radonic et al., 2015. The explant used in the sunflower regeneration assay was cotyledon.
Shoot regeneration frequency was established by calculating the average number of shoots, in the context of the present invention shoot regenerative capacity refers to the number of shoots per explant in each treatment.

wheat = test: Root and shoot growth of wheat; type: in vivo; details: 100 nM TaREF1 vs absence
Excerpt: (a) photos of wheat grown in the presence of 100 nm TaREF1, or in the absence of TaREF1 (mock). (b) primary root length in wheat grown in the presence of 100 nm TaREF1, or in the absence of TaREF1 (mock). (c) shoot length of wheat grown in the presence of 100 nm TaREF1, or in the absence of TaREF1 (mock).
The wheat SIPEP (REF1) orthologue (TaREF1) was investigated to establish whether REF1 can increase the regenerative capacity in wheat.

[2] = test system: Chinese Spring and JM22 wheat; test: Callus formation of wheat immature embryos on CIM; type: cell-based; details: exogenous TaREF1
Procedure: (a) photos of Chinese Spring wheat grown in the presence or 0 nM, 0.01 nM or 0.1 nM TaREF1. (b) immature embryos of Chinese Spring were cultured on CIM containing indicated concentrations of TaREF1, and callus phenotype was scored at 14 days after incubation on CIM. Callus formation capacity was represented by the percentage of immature embryo explants with regenerated embryonic calli. Data are mean±SD of three independent experiments.
(§1) TaREF1 was also shown to increase the callus formation capacity of Chinese spring wheat when applied exogenously (FIG. 43) and JM22 wheat (FIG. 54).

[3] = test system: Chinese Spring, Kn199 and JM22 wheat; test: Shoot regeneration of wheat; type: cell-based
Procedure: (a) photos of Kn199 wheat grown in the presence of 0.01 nM or 1 nM TaREF1 or absence of TaREF1 (mock). (b) photos of Kn199 wheat grown in the presence of 0.01 nM or 1 nM TaREF1 or absence of TaREF1.
as §1
Shoot regeneration frequency was established by calculating the average number of shoots, in the context of the present invention shoot regenerative capacity refers to the number of shoots per explant in each condition.

[4] = test system: hypocotyl explants of cotton; test: Callus formation of cotton hypocotyl explants on CIM; type: cell-based
Procedure: (a) photos of cotton grown in the presence of 0.1 nM, 1 nM 10 nM, 100 nM 500 nM GaREF1 or absence of GaREF1 (mock), (b) Hypocotyl explants of cotton were cultured on callus-inducing medium (CIM) containing indicated concentrations of GaREF1, and callus phenotype was scored at 14 days after incubation. Box plots represent the distribution of projected callus area. The projected area of callus was quantified by Image J. Individual values (black dots) are shown and error bars represent SD from three independent experiments. ***P<0.001, **P<0.01, *P<0.05 (Student's t-test).
The cotton SIPEP (REF1) orthologue (GaREF1) was investigated to establish its effect on cotton regenerative capacity.

[5] = test system: young embryos of B104 and Chang 7-2; test: Shoot regeneration of maize young embryos; type: cell-based
Procedure: Young embryos of B104 and Chang 7-2 were treated with 0, 0.1 or 1 nM of ZmREF1. For both B-104 and Chan 7-2 shoot regeneration frequency was increased when ZmREF1 was applied, for B-104 this was greatest at 1 nM, however, for Chan 7-2 this was greatest at 0.1 nM, as shown in FIG. 52.

mature seeds of ZH11 = test: Callus formation of rice mature seeds on CIM; type: cell-based, Oryza sativa; details: for callus formation capacity, increase: 20 days
Procedure: Mature seeds of ZH11 were cultured on CIM containing indicated concentrations of OsREF1. (a) photos of ZH11 grown in presence of 1 nM and 10 nM OsREF1 or in the absence of OsREF1 (mock). (b) callus phenotype was scored 20 days after incubation on CIM. Callus formation capacity was represented by the percentage of mature seed explants with regenerated embryonic calli. Data are mean±SD of three independent experiments.
Mature seeds of ZH11 were cultured on CIM containing indicated concentrations of OsREF1 (1 nM and 10 nM). As shown in FIG. 27A calluses formed that were larger in the presence of OsREF1 than in the absence of OsREF1.

[6] = test system: ZH11, Nipponbare and 9311 rice; test: Shoot regeneration of rice on SIM; type: cell-based, Oryza sativa; details: for shoot regeneration: SIM, 10 nM; for shoot regeneration capacity, increase: 10 nM OsREF1 vs absence
Procedure: ZH11 was cultured on SIM containing indicated concentrations of OsREF1. (a) photos of ZH11 grown in presence of 0 nM and 10 nM OsREF1. (b) shoot regeneration capacity of ZH11 grown in with either 0 nM or 10 nM OsREF1.
Nipponbare was cultured on SIM containing indicated concentrations of OsREF1. (a) photos of nipponbare grown in presence of 0 nM and 10 nM OsREF1. (b) shoot regeneration capacity of nipponbare grown in with either 0 nM or 10 nM OsREF1.
9311 rice was cultured on SIM containing indicated concentrations of OsREF1. (a) photos of 9311 rice grown in presence of 0 nM and 10 nM OsREF1. (b) shoot regeneration capacity of 9311 rice grown in with either 0 nM or 10 nM OsREF1.
Shoot regeneration was investigated in ZH11 and Nipponbare Japonica rice as well as 9311 indica rice. OsREF1 promoted shoot generation in all three of these rice varieties.

[7] = test system: wild allotetraploid rice (L-04); test: Growth (primary root length) of wild allotetraploid rice; type: in vivo; details: L-04, 10 nM OsREF1 vs mock
Procedure: L-04 rice was grown in the presence of 10 nM OsREF1 or in the absence of OsREF1 (mock). (a) photos of L-04 rice grown in presence the of 10 nM OsREF1 or absence of OsREF1 (mock). (b) primary root length of L-04 rice grown in the presence of 10 nM OsREF1 or absence of OsREF1 (mock).

[8] = test system: wild allotetraploid rice (L-04); test: Shoot regeneration of wild allotetraploid rice; type: cell-based
Procedure: (a) images of L-04 rice grown in the presence of 10 nM OsREF1 or absence of OsREF1 (mock). (b) regeneration frequency of L-04 rice grown in the presence of 10 nM OsREF1 or absence of OsREF1.

[9] = test system: seeds of wild allotetraploid rice L-04; test: Callus formation of wild allotetraploid rice seeds on CIM; type: cell-based; details: for callus formation capacity, increase: vs absence
Procedure: L-04 rice was grown in the presence of 10 nM or 1 nM OsREF1 or in the absence of OsREF1 (mock). (a) photos of L-04 rice grown in presence the of 10 nM, 1 nM OsREF1 or absence of OsREF1 (mock). (b) callus formation capacity of L-04 rice grown in the presence of 10 nM, 1 nM OsREF1 or absence of OsREF1 (mock).
Seeds of wild allotetraploid rice L-04 were cultured on CIM containing indicated concentrations of OsREF1 (1 nM and 10 nM) for 20 days.

[10] = test system: leaves of peach cultivar GF677; test: Callus formation of peach leaves on CIM; type: cell-based
Procedure: (a) photos of peach cultivar GF677 grown on a CIM in the presence of 100 nM PpREF1 and in the absence of PpREF1 (mock). (b) callus formation capacity of peach cultivar […] grown on a CIM in the presence 100 nM PpREF1 and in the absence of PpREF1 (mock) after 24 days. Callus formation capacity was represented by the percentage of leaves explants with regenerated embryonic calli. Data are mean±SD of three independent experiments.
Leaves of peach cultivar GF677 were cultured on CIM containing indicated concentrations of PpREF1, and callus phenotype was scored at 24 days after incubation on CIM. Callus formation capacity was represented by the percentage of leaves explants with regenerated embryonic calli. Data are mean±SD of three independent experiments. Callus formation capacity was increased by 10-fold in peach cultivar GF677 leaves grown in the presence of 100 nM PpREF1 compared to leaves grown in the absence of PpREF1.

## TGRRRGRPPSRPGVGRGPPPENN (listed as Capsicum annuum) [CaREF1]
Pepper roots
  root hair formation: promotes root hair formation
[1]
  callus formation: increased; also recorded: promotes callus formation

## RRLTRRPPPPRGPISSGGGGQTN (listed as Helianthus annuus) [HanREF1]
Sunflower explants; 1 nM HanREF1 vs absence
  shoot regeneration, increase: ~ 2.1 fold
Sunflower explants; 10 nM HanREF1 vs absence
  shoot regeneration, increase: ~ 4.5 fold
Sunflower explants; 1 or 10 nM vs mock
  shoot regeneration: promotes shoot regeneration

## AVRRPRPPGNPREGRGGGGGSHN (listed as Triticum aestivum) [TaREF1]
wheat
  root length: increased; also recorded: promotes root and shoot growth
  shoot length: increased; also recorded: promotes root and shoot growth
[2]; Chinese spring wheat
  callus formation capacity: increase
[2]; JM22 wheat
  callus formation capacity: increase; also recorded: promotes callus formation
[3]; Chinese Spring wheat
  shoot regeneration: promotes shoot regeneration
[3]; JM22 wheat
  shoot regeneration: promotes shoot regeneration
[3]; Kn199 wheat
  shoot regeneration: promotes shoot regeneration

## LPMVSLFTPKRPGTSAGSGPQIN (listed as Gossypium arboreum) [GaREF1]
[4]; 0.1-500 nM GaREF1
  relative callus area, concentration dependence: increasing as concentration of GaREF1 is increased
[4]; presence vs absence of GaREF1, 14 days
  relative callus area / callus formation: increased; also recorded: promotes callus formation

## RRPRPRPPDHAREGSGGNGGVHH (Zea mays) [ZmREF1]
[5]; B-104
  concentration with greatest shoot regeneration frequency: 1 nM
[5]; B-104 and Chan 7-2, 0.1 or 1 nM ZmREF1 vs 0
  shoot regeneration frequency: increased; also recorded: promotes shoot regeneration
[5]; Chan 7-2
  concentration with greatest shoot regeneration frequency: 0.1 nM

## DDSKPTGPGAPAEGSGGDGGAIH (listed as Oryza sativa) [OsREF1]
Mature seeds of ZH11; ZH11, 1 nM OsREF1 vs absence
  callus formation capacity, increase: ~ 2 fold
Mature seeds of ZH11; ZH11, 10 nM OsREF1 vs absence
  callus formation capacity, increase: ~ 3 fold
Mature seeds of ZH11; ZH11 Japonica rice, presence vs absence of OsREF1
  callus formation: larger; also recorded: promotes callus formation
[6]; 9311 indica rice
  shoot regeneration: promotes shoot regeneration
[6]; 9311 rice
  shoot regeneration capacity, increase: ~ 3.5 fold
[6]; Nipponbare Japonica rice
  shoot regeneration: promotes shoot regeneration
[6]; Nipponbare rice
  shoot regeneration capacity, increase: ~ 4 fold
[6]; ZH11 Japonica rice
  shoot regeneration: promotes shoot regeneration
[6]; ZH11 rice
  shoot regeneration capacity, increase: ~ 4 fold
[7]
  growth: promotes the growth
  primary root length: significantly increased
[8]; L-04, 10 nM OsREF1 vs absence
  shoot regeneration frequency, increase: ~ 12.2 fold
[8]; L-04, 10 nM OsREF1 vs mock
  shoot regeneration: promotes shoot regeneration
[9]; L-04, 1 nM OsREF1, 20 days
  callus formation capacity, increase: ~ 7.4 fold
[9]; L-04, 10 nM OsREF1, 20 days
  callus formation capacity, increase: ~ 8.9 fold
[9]; L-04, 1 or 10 nM OsREF1 vs mock
  callus formation: promotes callus formation

## KRPRITLRAARPEISTGSGAQTN (listed as Prunus persica) [PpREF1]
[10]; GF677, 100 nM PpREF1 vs mock
  callus formation: promotes callus formation
[10]; GF677 leaves, 100 nM PpREF1 vs absence, 24 days
  callus formation capacity, increase: 10 fold
